The record followed here is ChEMBL document CHEMBL4840338, “Cudraflavone C from Artocarpus hirsutus as a Promising Inhibitor of Pathogenic, Multidrug-Resistant S. aureus, Persisters, and Biofilms: A New Insight into a Rational Explanation of Traditional Wisdom” (J Nat Prod, 2021).

Experiment [1] concerns Enterococcus. The experiment can be described thus: Antibacterial activity against Enterococcus NR 31884 assessed as bacterial growth inhibition incubated for 16 to 18 hrs by broth microdilution method. In kind it is functional. The conditions noted are these: time 16-18 hrs. In general terms: Broth dilution looks for growth in wells or tubes with falling amounts of substance.

For a further experiment, the system named is Escherichia coli. Kind of experiment: Antibacterial activity against Escherichia coli ATCC 25922 assessed as bacterial growth inhibition in presence of outermembrane permeabilizer, PMBN incubated for 16 to 18 hrs by broth microdilution method. Format: functional. Particulars: time 16-18 hrs.
The test system of experiment [2] is Staphylococcus aureus. Kind of experiment: Antibacterial activity against methicillin-resistant Staphylococcus aureus NRS 10193 assessed as bacterial growth inhibition incubated for 16 to 18 hrs by broth microdilution method. Format: functional. The conditions noted are these: time 16-18 hrs.
Experiment [3] relates to Staphylococcus aureus. The experiment can be described thus: Antibacterial activity against methicillin-resistant Staphylococcus aureus NRS 10186 assessed as bacterial growth inhibition incubated for 16 to 18 hrs by broth microdilution method. Format: functional. Particulars: time 16-18 hrs.
The subject of experiment [4] is Staphylococcus aureus. The experiment can be described thus: Antibacterial activity against vancomycin-resistant Staphylococcus aureus VRS12 assessed as bacterial growth inhibition incubated for 16 to 18 hrs by broth microdilution method. Format: functional. Particulars: time 16-18 hrs.
Experiment [5] relates to Enterococcus. The experiment can be described thus: Antibacterial activity against vancomycin-susceptible Enterococcus NR 31887 assessed as bacterial growth inhibition incubated for 16 to 18 hrs by broth microdilution method. Format: functional. The conditions noted are these: time 16-18 hrs.
Experiment [6] relates to Enterococcus. The experiment can be described thus: Antibacterial activity against vancomycin-susceptible Enterococcus NR 31888 assessed as bacterial growth inhibition incubated for 16 to 18 hrs by broth microdilution method. In kind it is functional. The conditions noted are these: time 16-18 hrs.
Experiment [7] concerns Enterococcus. The experiment can be described thus: Antibacterial activity against vancomycin-resistant Enterococcus NR 31909 assessed as bacterial growth inhibition incubated for 16 to 18 hrs by broth microdilution method. The conditions noted are these: time 16-18 hrs. In kind it is functional.
Experiment [8] relates to Enterococcus. Kind of experiment: Antibacterial activity against vancomycin-resistant Enterococcus NR 31912 assessed as bacterial growth inhibition incubated for 16 to 18 hrs by broth microdilution method. In kind it is functional. The conditions noted are these: time 16-18 hrs.
Experiment [9] deals with Staphylococcus aureus. Kind of experiment: Bactericidal activity against Staphylococcus aureus ATCC 29213 assessed as reduction in bacterial load at 1X MIC preincubated for 6 hrs followed by subculturing on TSA plate for 18 to 20 hrs by time-kill assay. The conditions noted are these: time 24-26 hrs. Format: functional.
Experiment [10] deals with Staphylococcus aureus. The experiment can be described thus: Antibacterial activity against Staphylococcus aureus ATCC 29213 assessed as fractional inhibitory concentration in presence of daptomycin incubated for 24 hrs by checkerboard assay. In kind it is functional.
The subject of experiment [11] is Staphylococcus aureus. The experiment can be described thus: Antibacterial activity against Staphylococcus aureus ATCC 29213 assessed as fractional inhibitory concentration in presence of levofloxacin incubated for 24 hrs by checkerboard assay. In kind it is functional.
For experiment [12], the system named is Staphylococcus aureus. The experiment can be described thus: Antibacterial activity against Staphylococcus aureus ATCC 29213 assessed as fractional inhibitory concentration in presence of meropenem incubated for 24 hrs by checkerboard assay. In kind it is functional.
Experiment [13] has as its system Staphylococcus aureus. The experiment can be described thus: Synergistic antibacterial activity against multidrug-resistant methicillin resistant Staphylococcus aureus NRS 10119 assessed as reduction in bacterial load at 1X MIC preincubated for 24 hrs in presence of gentamycin followed by subculturing on TSA plate for 18 to 20 hrs by time-kill assay. Format: functional. The conditions noted are these: time 42-44 hrs.

The test system of experiment [14] is Staphylococcus aureus. Kind of experiment: Antibacterial activity against Staphylococcus aureus ATCC 29213 assessed as reduction in bacterial growth at sub-MIC incubated for more than 40 days. Format: functional, organism-based. Particulars: time day >40.
Experiment [15] deals with Staphylococcus aureus. The experiment can be described thus: Antibacterial activity against Staphylococcus aureus ATCC 29213 assessed as bacterial growth inhibition in presence of daptomycin incubated for 24 hrs by checkerboard assay. Format: functional.
The test system of experiment [16] is Staphylococcus aureus. The experiment can be described thus: Antibacterial activity against Staphylococcus aureus ATCC 29213 assessed as bacterial growth inhibition in presence of gentamycin incubated for 24 hrs by checkerboard assay. Format: functional.
Experiment [17] has as its system Staphylococcus aureus. Kind of experiment: Antibacterial activity against Staphylococcus aureus ATCC 29213 assessed as bacterial growth inhibition in presence of levofloxacin incubated for 24 hrs by checkerboard assay. Format: functional.
Experiment [18] relates to Staphylococcus aureus. Kind of experiment: Antibacterial activity against Staphylococcus aureus ATCC 29213 assessed as bacterial growth inhibition in presence of minocycline incubated for 24 hrs by checkerboard assay. In kind it is functional.
Experiment [19] deals with Staphylococcus aureus. The experiment can be described thus: Antibacterial activity against Staphylococcus aureus ATCC 29213 assessed as bacterial growth inhibition in presence of vancomycin incubated for 24 hrs by checkerboard assay. In kind it is functional.
For experiment [20], the system named is Staphylococcus aureus. Kind of experiment: Synergistic bactericidal activity against Staphylococcus aureus ATCC 29213 assessed as reduction in bacterial load at 1X MIC preincubated for 6 hrs in presence of gentamycin followed by subculturing on TSA plate for 18 to 20 hrs by time-kill assay. In kind it is functional. Particulars: time 24-26 hrs.
Experiment [21] deals with Staphylococcus aureus. The experiment can be described thus: Antibacterial activity against Staphylococcus aureus ATCC 29213 assessed as time for post-antibiotic effect at 10XMIC incubated for 1 hr followed by drug wash-out and measured every single 1 hr. Format: functional.

SMILES strings stand for the structures. Converted amounts (≈) assume the structure as drawn. The source made the active and inactive calls. The rule behind the calls is not given here.

`CC(C)=CCc1c(O)cc2oc(-c3ccc(O)cc3O)c(CC=C(C)C)c(=O)c2c1O` [CUDRAFLAVONE C]: the MIC (commonly the lowest concentration found to suppress growth) with Enterococcus [1] was found to be 4 µg/mL (≈ 9.47 µM); in the experiment with Escherichia coli, 1 µg/mL; with Staphylococcus aureus [2], 4 µg/mL (≈ 9.47 µM); in the experiment with Staphylococcus aureus [3], 4 µg/mL (≈ 9.47 µM); in the experiment with Staphylococcus aureus [4] it was 4 µg/mL (≈ 9.47 µM); with Enterococcus [5], 4 µg/mL (≈ 9.47 µM). For the same compound, the MIC with Enterococcus [6] is 4 µg/mL (≈ 9.47 µM); with Enterococcus [7], 4 µg/mL (≈ 9.47 µM); in the experiment with Enterococcus [8], 4 µg/mL (≈ 9.47 µM); with Staphylococcus aureus [15] it was 2 µg/mL; with Staphylococcus aureus [16], 0.06 µg/mL; in the experiment with Staphylococcus aureus [17], 2 µg/mL. Moreover, the MIC in the experiment on Staphylococcus aureus [18] and in the experiment on Staphylococcus aureus [19] was 2 µg/mL each time. Besides, the Activity in the experiment with Staphylococcus aureus [9] is listed as 4 log10CFU/ml; with Staphylococcus aureus [13] it was 6 log10CFU/ml; with Staphylococcus aureus [20], 9 log10CFU/ml. In addition, the FIC with Staphylococcus aureus [10], in the experiment with Staphylococcus aureus [11] and in the experiment on Staphylococcus aureus [12] was 1.5 each time. The result in the experiment on Staphylococcus aureus [14] was Active. For the same compound, the Time in the experiment on Staphylococcus aureus [21] was greater than 22 h.
